{"source": "patent US8772463B2", "about": "“Fluorescent dye-labeled glucose bioprobe, synthesis method and usage thereof” (SNU R&DB Foundation, priority 2007, dated 2014)", "key": {"[1]": {"system": "A549 cells", "assay": "Screening of anticancer agents by Cy3-Glc-α uptake", "type": "cell-based, human", "experimental": "(§1) 1×10^4 cells were cultured on a Lab-Tek glass chamber slide (Nalge Nunc International, Naperville, Ind., USA) in 35 mm cell culture dish. After 24 h, the cells were treated for each experimental purpose. Then, the medium was replaced with RPMI 1640 medium containing 12.5 μM of Cy3-Glc-α. The cells were exposed to Cy3-Glc-α for 40 min, then washed with PBS 3 times. Finally, the glass chamber slide was taken from culture dish and loaded on the fluorescence microscope (Axiovert 200, Carl Zeiss, Germany). Fluorescence images of 35-50 cells were taken by CCD camera (Axiocam MRm, Germany) and fluorescence intensity of each cell was measured by Axiovision (program for data analysis). An area as ROIs (regions of interest) which contains a cell in phase-contrast image was drawn using Axiovision. Axiovision analyzed CCD camera images and provided the digitized mean of fluorescence intensity in the ROIs that the present inventors had established. The present inventors subtracted the background intensity from the fluorescence intensity to get the fluorescence intensity value that a cell contained. With the method described above, the present inventors digitized fluorescence intensity and performed various experiments.\nThe application was performed under the postulation that the depression of perturbed cellular metabolism in cancer cells was caused by anticancer agents, which was closely related to the reduction of glucose uptake.\nThe present inventors intended to monitor this phenomenon by the fluorescent bioprobe according to the present invention, that is, Cy3-Glc-α. As a proof-of-principle experiment, after A549 cancer cells were treated with taxol (9.8 μM), an anticancer agent, and the uptake of Cy3-Glc-αwas measured at 3, 6, 12, and 24 h after the treatment.\n(3) In addition, after the taxol concentration was changed in the range of 490 nM to 49 nM, the uptake of Cy3-Glc-α by A549 cells was measured after 8 hr and 12 hr, and after another anticancer agent, i.e., combretastatin, (2 μM) was used to treat A549 cells, the uptake of Cy3-Glc-α by A549 cells was measured after 8 hr and 12 hr."}, "[2]": {"details": "normal media containing 10 mM D-glucose; cited from earlier work"}, "[3]": {"system": "A549 cells", "assay": "Probe uptake by A549 cells, inverted fluorescent microscope (α/β anomers, alanine, 2-NBDG comparison)", "type": "cell-based, human", "experimental": "as §1\nTo confirm the above hypothesis, real-time uptake of Cy3-Glc-α was measured, and the results were compared to those of Cy3-Glc-β by live imaging of A549 cells by using inverted fluorescent microscope. […] This led the present inventors to the conclusion that the stereochemistry at the C-1 anomeric position definitely influences the efficiency of mimicking glucose, and this might be due to the binding orientation of D-glucose in GLUTs [P. W. Hruz, M. M. Mueckler, Mole. Memb. Biol. 2001, 18, 183-193].\nThe cellular uptake of 2-NBDG was not detected under identical experimental conditions used for Cy3-Glc-α. […] To achieve the fluorescence intensity with 2-NBDG to 80% that of Cy3-Glc-α, a 10 fold increase in 2-NBDG concentration and a 20 fold increase in the lens exposure time in D-glucose-depleted medium were needed.\nIn addition, the cellular uptake of 2-NBDG in normal media (containing 10 mM D-glucose) was extremely low (>60% uptake reduction in normal media) and was hardly detected using fluorescent based imaging methods [R. G. O'Neil, L. Wu, N. Mullani, Mol. Imaging Biol. 2005, 7, 388-392]. 2-NBDG was detectable only in glucose-depleted media, and this means a critical limitation of bioapplication of 2-NBDG in the biologically significant environments. In comparison with 2-NBDG, the reduction of Cy3-Glc-α uptake in glucose-containing media was only 5% compared to that in glucose-depleted media (FIG. 18). Therefore, it was confirmed that Cy3-Glc-α was capable of being applied to a bioassay system regardless of glucose starvation."}, "[4]": {"system": "NIH/3T3 cells", "assay": "FACS-based flow cytometric analysis of probe uptake with/without 11 mM D-glucose", "type": "cell-based, murine", "details": "for reduction in cellular uptake due to 11 mM D-glucose: glucose-depleted condition normalized to 100", "experimental": "FACS (Fluorescence Activated Cell Sorting)-based flow cytometric analysis was used to compare cellular uptake efficiency in NIH/3T3 cells among the glucose probe [2-(N-Cy3-piperazinoethyl)]-α-D-glucose (GB2-Cy3), synthesized in Example 2, the conventional fluorescent glucose probe 2-NBDG and the glucose probe Cy3-Glc-α, synthesized in Example 1.\nNIH/3T3 cells were cultured on 10 cm cell culture dishes and transferred in a volume of 3×10^5 cells into each FACS tube (5 mL, BD). They were washed once with cold PBS before incubation at 37° C. for 30 min in 11 mM D-glucose-containing PBS or glucose-free PBS in the presence of the bioprobe [GB2-Cy3 (5 μM), 2-NBDG (5 μM or 50 μM) or Cy3-Glc-α (5 μM)]. Cells that were incubated without the bioprobes were used as a negative control. After being washed with cold PBS, 1×10^4 NIH/3T3 cells were analyzed on FACSCalibur™ (FACS-based flow cytometer). GBs-Cy3 was detected by FL2 channels. Raw data of 1×10^4 cells are shown in histograms, with the mean values thereof given in the graph of FIG. 21."}, "[5]": {"system": "C2C12 muscle cells", "assay": "Glucose competition and insulin response monitored by GB2-Cy3, flow cytometry", "type": "cell-based, mouse", "details": "D-glucose competition and insulin treatment", "method": "(§4) For the differentiation to mature muscle cells, C2C12 mouse myoblast cells were maintained in DMEM supplemented with 10% FBS and 1% antibiotic-antimycotic solution. When the cells reached to 100% confluency, the medium was changed to DMEM containing 2% horse serum in every two days. Experiments for flow cytometric analysis and flow cytometric analysis were carried out with cells after 3 to 5-days differentiation.\nThe resulting cells were incubated with 5 μM GB2-Cy3 for 15 min in the absence/presence of 11 mM D-glucose. They were washed with cold PBS, collected and analyzed using FACSCalibur™. After detection of GB2-Cy3 by FL2 channels, mean fluorescent intensity values were calculated."}, "[6]": {"system": "3T3/L1 pre-adipocytes", "assay": "GB2-Cy3 uptake during adipocyte differentiation, FACS-based flow cytometry", "type": "cell-based, mouse", "details": "day 0 to day 8 of differentiation", "experimental": "(§2) For the differentiation of preadipocyte to mature adipocytes, 3T3/L1 fibroblast cells were cultured using the above mentioned culture protocol. […] When the cells start to generate lipid drops as an indication of the differentiation toward mature adipocytes, insulin was removed from the culture media. Mature adipocytes can be achieved by 8- to 12-day differentiation, and used for flow cytometric analysis and fluorescent bioimaging microscopy.\nThe changes in cellular glucose uptake from 3T3/L1 pre-adipocytes (day 0 of differentiation) toward more than 50% differentiation of mature adipocytes (day 8 of differentiation) were measured by FACS-based flow cytometric analysis using GB2-Cy3. The differentiation procedure was followed as described above. 1×10^4 cells were analyzed at FL2 channel of the flow cytometry. […] As mentioned above, the glucose analogue GB2-Cy3 of the present invention is useful for monitoring the differentiation of 3T3/L1 cells into mature adipocytes."}, "[7]": {"system": "A549 cells", "assay": "Fluorescence imaging analysis of competitive probe uptake", "type": "cell-based, human", "experimental": "(§3) Also, NIH/3T3, A549, C2C12 and 3T3/L1 cells, each having a population of 4×10^4 cells, were cultured on 35 mm cell culture dishes (BD Falcon™ Cell Culture Dish; BD Bioscience, CA, USA). Two days later, the cell culture medium was replaced with a glucose-depleted medium (DMEM, glucose free, GIBCO) supplemented with 0 mM, 11 mM or 55 mM D-glucose and 10 μM GB2-Cy3. After incubation at 37° C. for 30 min, the cells on the cover slips in the 35-mm cell culture dishes were washed twice with cold PBS and the cover slips were mounted on the caster of a fluorescence microscope (Olympus IX71). During observation under the fluorescence microscope, the cells were maintained at 37° C. in the chamber. Fluorescence images of 35-50 cells were taken by CCD camera (Axiocam MRm, Germany) and each cell was measured for fluorescence intensity using the image data analysis program Image-Pro® Plus (MediaCybernetics, USA). As ROIs (regions of interest), areas which encompassed cells within phase-contrast images were drawn using Image-Pro® Plus. Image-Pro® Plus analyzed CCD camera images to produce the digitized mean of fluorescence intensity within the ROIs that the present inventors had established. The background intensity was subtracted from the detected fluorescence intensity to give the fluorescence intensity value that a cell contained. In this manner, the fluorescence intensity was digitized for performing various experiments.\nNIH/3T3 and A549 cells were cultured on microscope cover glasses in 35 mm cell culture dishes and subjected to fluorescence imaging analysis according to the protocol."}, "[8]": {"system": "NIH/3T3 cells", "assay": "Fluorescence imaging analysis of competitive GB2-Cy3 uptake", "type": "cell-based, murine", "details": "GB2-Cy3 10 μM; 0, 11 or 55 mM D-glucose", "experimental": "as §3, with “As ROIs (regions of interest), areas which encompassed cells within phase-contrast images were drawn using Image-Pro® Plus.” left out, “experiments. […]” for “experiments.”"}, "[9]": {"system": "C2C12 muscle cells", "assay": "Cellular glucose uptake under insulin, AICAR, dexamethasone monitored by GB2-Cy3", "type": "cell-based, mouse", "details": "insulin 170 nM, AICAR 1 mM (1 hr) or dexamethasone 1 μM (24 hrs); GB2-Cy3 5 μM", "method": "as §4\n3T3/L1 preadipocyte cells and C2C12 fibroblast cells were cultured in 24-well plates. […] 2×10^5 (3T3/L1) or 1×10^5 (C2C12) cells were analyzed using FACSCalibur™ and a confocal laser scanning microscope."}, "[10]": {"system": "3T3/L1 adipocytes", "assay": "Cellular glucose uptake under insulin, AICAR, dexamethasone monitored by GB2-Cy3", "type": "cell-based, mouse", "details": "insulin 170 nM, AICAR 1 mM (1 hr) or dexamethasone 1 μM (24 hrs); GB2-Cy3 10 μM", "experimental": "as §2\nAlso, C2C12 cells and 3T3/L1 cells, each having a population of 6×10^4 cells, were cultured and differentiated on respective microscope cover glasses [Marlenfeld GmbH&Co., KG (Germany)] in 35 mm cell culture dishes. After removal of the differentiation media, FBS-free DMEM media containing 5.5 mM glucose were added to maintained a serum-free condition for 4 hrs. […] In this regard, an FBS-free DMEM medium containing 5.5 mM glucose or a DMEM medium free of both FBS and glucose was used. Cells were incubated at 37° C. for 30 min after which the glass chamber slides were withdrawn from the culture dishes and loaded on a chamber. […] Fluorescence images were taken every seven seconds, digitized and saved on a computer until analysis.\n3T3/L1 preadipocyte cells and C2C12 […] cells were cultured in 24-well plates. […] 2×10^5 (3T3/L1) or 1×10^5 (C2C12) cells were analyzed using FACSCalibur™ and a confocal laser scanning microscope."}}, "note": "Entries after “also recorded” stand apart in the source; their conditions may differ.", "data": [{"compound": "CC(=O)O[C@H]1C(=O)[C@@]2(C)[C@H]([C@H](OC(=O)c3ccccc3)[C@]3(O)C[C@H](OC(=O)[C@H](O)[C@@H](NC(=O)c4ccccc4)c4ccccc4)C(C)=C1C3(C)C)[C@]1(OC(C)=O)CO[C@@H]1C[C@@H]2O", "note": "[Taxol]", "values": [{"measurement": "uptake of Cy3-Glc-α by A549 cells", "setting": "[1]; agent 49 nM, 6 h", "value": 96.5, "unit": "%"}, {"measurement": "uptake of Cy3-Glc-α by A549 cells", "setting": "[1]; agent 49 nM, 12 h", "value": 86.9, "unit": "%"}, {"measurement": "uptake of Cy3-Glc-α by A549 cells", "setting": "[1]; agent 490 nM, 6 h", "value": 88.4, "unit": "%"}, {"measurement": "uptake of Cy3-Glc-α by A549 cells", "setting": "[1]; agent 490 nM, 12 h", "value": 61.8, "unit": "%"}, {"measurement": "uptake of Cy3-Glc-α by A549 cells", "setting": "[1]; agent 9.8 μM, 6 h", "value": 54.8, "unit": "%"}, {"measurement": "uptake of Cy3-Glc-α by A549 cells", "setting": "[1]; agent 9.8 μM, 12 h", "value": 50.2, "unit": "%"}, {"measurement": "cellular uptake of Cy3-Glc-α versus incubation time with agent", "setting": "[1]; taxol 9.8 μM, 3, 6, 12, 24 h", "value": "reduced as the incubation time increased"}]}, {"compound": "COc1ccc(C[C@@H](O)c2cc(OC)c(OC)c(OC)c2)cc1O", "note": "[Combretastatin]", "values": [{"measurement": "uptake of Cy3-Glc-α by A549 cells", "setting": "[1]; agent 2 μM, 6 h", "value": 57.4, "unit": "%"}, {"measurement": "uptake of Cy3-Glc-α by A549 cells", "setting": "[1]; agent 2 μM, 12 h", "value": 45.0, "unit": "%"}]}, {"compound": "O=[N+]([O-])c1ccc(NC2C(O)OC(CO)C(O)C2O)c2nonc12", "note": "[2-NBDG, 2-[N-(7-nitrobenz-2-oxa-1,3-diazol-4-yl)amino]-2-deoxy-D-glucose]", "values": [{"measurement": "uptake reduction in normal media", "setting": "[2]", "value": "> 60", "unit": "%"}, {"measurement": "detection of cellular uptake under conditions identical to Cy3-Glc-α", "setting": "[3]; 12.5 μM, 500 ms lens exposure", "value": "not detected"}, {"measurement": "fluorescence detection at 125 μM", "setting": "[3]; 125 μM, 500 ms CCD lens exposure", "value": "little detected; also recorded: the fluorescence was not detected"}, {"measurement": "fluorescence intensity of 2-NBDG relative to that of Cy3-Glc-α", "setting": "[3]; 10 fold 2-NBDG concentration, 20 fold lens exposure time, D-glucose-depleted medium", "value": 80, "unit": "%"}, {"measurement": "competition with D-glucose for cellular uptake", "setting": "[4]; probe 5 μM, 11 mM D-glucose", "value": "did not compete with D-glucose for cellular uptake"}, {"measurement": "reduction in cellular uptake due to 11 mM D-glucose", "setting": "[4]; probe 50 μM", "value": 30, "unit": "%"}]}, {"compound": "C[N+]1=C(/C=C/C=C2/N(CCCCC(=O)N3CCN(CCOC4OC(CO)C(O)C(O)C4O)CC3)c3ccccc3C2(C)C)C(C)(C)c2ccccc21", "note": "[GB2-Cy3, [2-(N-Cy3-piperazinoethyl)]-α-D-glucose]", "values": [{"measurement": "uptake route of GB2-Cy3", "setting": "[5]", "value": "GLUT-specific uptake"}, {"measurement": "fluorescent intensity (FL2) as differentiation progressed", "setting": "[6]", "value": "increase in fluorescence intensity with the advance of differentiation; also recorded: the fluorescent intensity detected by FL2 channel was increased"}, {"measurement": "reduction in cellular uptake due to 11 mM D-glucose", "setting": "[4]; probe 5 μM", "value": "about 60%"}, {"measurement": "cellular uptake in A549 cells compared with NIH/3T3 cells", "setting": "[7]; GB2-Cy3 10 μM", "value": "observed to increase in A549 lung carcinoma cells"}, {"measurement": "cellular uptake versus D-glucose concentration", "setting": "[7]; GB2-Cy3 10 μM, 0, 11 or 55 mM D-glucose", "value": "reduced in a D-glucose dose-dependent manner"}, {"measurement": "cellular uptake versus D-glucose concentration", "setting": "[7]; probe 12.5 μM", "value": "decreased in the cellular uptake of the glucose analogues in D-glucose dose-dependent manners"}, {"measurement": "change in the fluorescent intensity of ROIs when D-glucose changed from 10 mM to 55 mM", "setting": "[7]; probe 12.5 μM", "value": "approximately 27%"}, {"measurement": "cellular uptake versus D-glucose concentration", "setting": "[8]", "value": "reduced in a D-glucose dose-dependent manner"}]}, {"compound": "insulin: Insulin purchased from SIGMA; stimulates GLUT4 translocation and glucose uptake", "values": [{"measurement": "effect on cellular uptake of glucose monitored by GB2-Cy3", "setting": "[9]", "value": "enhanced cellular uptake of glucose"}, {"measurement": "effect on cellular uptake of glucose monitored by GB2-Cy3", "setting": "[10]", "value": "enhanced cellular uptake of glucose"}]}]}
